# Test results from ChEMBL document CHEMBL1201862, “PubChem BioAssay data set” (2004).
#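 Exposure lasted 48 hours, with cells grown in 96-well plates and compounds tested at five concentrations. The concentration for 50% growth inhibition is given as GI50.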 Active and inactive are the calls of the source. Rule as the data show it: active = GI50 up to about 1.1 µM and inactive = higher.
# Columns and labels:
# Experiment in all cases: NCI-60 cell line screen, 48 h
# 786-0 = test system: 786-0
# A498 = test system: A498
# A549 = test system: A549
# ACHN = test system: ACHN
# CAKI-1 = test system: CAKI-1
# CCRF-CEM = test system: CCRF-CEM
# COLO 205 = test system: COLO 205
# DLD-1 = test system: DLD-1
# DMS-114 = test system: DMS-114
# DMS-273 = test system: DMS-273
# EKVX = test system: EKVX
# HCC 2998 = test system: HCC 2998
# HCT-116 = test system: HCT-116
# HCT-15 = test system: HCT-15
# HL-60 = test system: HL-60
# HOP-18 = test system: HOP-18
# HOP-62 = test system: HOP-62
# HOP-92 = test system: HOP-92
# HT-29 = test system: HT-29
# IGROV-1 = test system: IGROV-1
# K562 = test system: K562
# KM-20L2 = test system: KM-20L2
# KM12 = test system: KM12
# LOX IMVI = test system: LOX IMVI
# LXFL 529 = test system: LXFL 529
# M14 = test system: M14
# M19-MEL = test system: M19-MEL
# MOLT-4 = test system: MOLT-4
# Malme-3M = test system: Malme-3M
# NCI-H226 = test system: NCI-H226
# NCI-H23 = test system: NCI-H23
# NCI-H460 = test system: NCI-H460
# NCI-H522 = test system: NCI-H522
# OVCAR-3 = test system: OVCAR-3
# OVCAR-4 = test system: OVCAR-4
# OVCAR-5 = test system: OVCAR-5
# OVCAR-8 = test system: OVCAR-8
# RPMI-8226 = test system: RPMI-8226
# RXF 393 = test system: RXF 393
# RXF 631 = test system: RXF 631
# SF-268 = test system: SF-268
# SF-295 = test system: SF-295
# SF-539 = test system: SF-539
# SK-MEL-28 = test system: SK-MEL-28
# SK-MEL-2 = test system: SK-MEL-2
# SK-MEL-5 = test system: SK-MEL-5
# SK-OV-3 = test system: SK-OV-3
# SN12C = test system: SN12C
# SNB-19 = test system: SNB-19
# SNB-75 = test system: SNB-75
# SNB-78 = test system: SNB-78
# SW-620 = test system: SW-620
# TK-10 = test system: TK-10
# U-251 = test system: U-251
# UACC-257 = test system: UACC-257
# UACC-62 = test system: UACC-62
# UO-31 = test system: UO-31
# XF498 = test system: XF498
compound,measurement,setting,value
CC(=O)Nc1ccccc1[S+]([O-])c1ccccc1 (stereo not drawn),GI50,786-0,> 100 µM (inactive)
same,GI50,A498,> 100 µM (inactive)
same,GI50,A549,> 100 µM (inactive)
same,GI50,ACHN,> 100 µM (inactive)
same,GI50,CAKI-1,> 100 µM (inactive)
same,GI50,CCRF-CEM,> 100 µM (inactive)
same,GI50,COLO 205,> 100 µM (inactive)
same,GI50,DLD-1,> 100 µM (inactive)
same,GI50,DMS-114,> 100 µM (inactive)
same,GI50,DMS-273,> 100 µM (inactive)
same,GI50,EKVX,> 100 µM (inactive)
same,GI50,HCC 2998,> 100 µM (inactive)
same,GI50,HCT-116,> 100 µM (inactive)
same,GI50,HCT-15,> 100 µM
same,GI50,HL-60,> 100 µM (inactive)
same,GI50,HOP-18,> 100 µM (inactive)
same,GI50,HOP-62,> 100 µM (inactive)
same,GI50,HOP-92,> 100 µM (inactive)
same,GI50,HT-29,> 100 µM (inactive)
same,GI50,IGROV-1,> 100 µM (inactive)
same,GI50,K562,> 100 µM (inactive)
same,GI50,KM-20L2,> 100 µM (inactive)
same,GI50,KM12,> 100 µM (inactive)
same,GI50,LOX IMVI,> 100 µM (inactive)
same,GI50,LXFL 529,> 100 µM (inactive)
same,GI50,M14,> 100 µM (inactive)
same,GI50,M19-MEL,> 100 µM (inactive)
same,GI50,MOLT-4,> 100 µM (inactive)
same,GI50,Malme-3M,> 100 µM (inactive)
same,GI50,NCI-H226,> 100 µM (inactive)
same,GI50,NCI-H23,> 100 µM (inactive)
same,GI50,NCI-H460,> 100 µM (inactive)
same,GI50,NCI-H522,71.8 µM (inactive)
same,GI50,OVCAR-3,> 100 µM (inactive)
same,GI50,OVCAR-4,> 100 µM (inactive)
same,GI50,OVCAR-5,4.21 µM (inactive)
same,GI50,OVCAR-8,> 100 µM (inactive)
same,GI50,RPMI-8226,> 100 µM (inactive)
same,GI50,RXF 393,> 100 µM (inactive)
same,GI50,RXF 631,> 100 µM (inactive)
same,GI50,SF-268,> 100 µM (inactive)
same,GI50,SF-295,> 100 µM (inactive)
same,GI50,SF-539,> 100 µM (inactive)
same,GI50,SK-MEL-28,> 100 µM (inactive)
same,GI50,SK-MEL-2,> 100 µM (inactive)
same,GI50,SK-MEL-5,> 100 µM (inactive)
same,GI50,SK-OV-3,84.5 µM (inactive)
same,GI50,SN12C,> 100 µM (inactive)
same,GI50,SNB-19,> 100 µM (inactive)
same,GI50,SNB-75,> 100 µM (inactive)
same,GI50,SNB-78,> 100 µM (inactive)
same,GI50,SW-620,> 100 µM (inactive)
same,GI50,TK-10,> 100 µM (inactive)
same,GI50,U-251,> 100 µM (inactive)
same,GI50,UACC-257,> 100 µM (inactive)
same,GI50,UACC-62,> 100 µM (inactive)
same,GI50,UO-31,> 100 µM (inactive)
same,GI50,XF498,> 100 µM (inactive)
